# In US7932277B2, “Peptide inhibitors of hepatitis C virus replication” (InterMune, Inc., priority 2007, dated 2011):
# pEC50, pIC50: −log10 of the molar value. Like-named read-outs stand apart in the source and are kept apart here.
# Assays:
# [1] = target: T1, NS3/NS4A-2 (full-length HCV NS3 protease complexed with NS4A-2) (Hepatitis C virus genotype 1a, UniProt P27958); assay: NS3 inhibition assay (NS3-NS4 protease assay); assay type: biochemical
# T1 construct: Recombinant E. coli or Baculovirus full-length NS3; host or cells: E. coli or baculovirus (insect cells)
# T1 sequence (P27958 1027-1657, one chain of several): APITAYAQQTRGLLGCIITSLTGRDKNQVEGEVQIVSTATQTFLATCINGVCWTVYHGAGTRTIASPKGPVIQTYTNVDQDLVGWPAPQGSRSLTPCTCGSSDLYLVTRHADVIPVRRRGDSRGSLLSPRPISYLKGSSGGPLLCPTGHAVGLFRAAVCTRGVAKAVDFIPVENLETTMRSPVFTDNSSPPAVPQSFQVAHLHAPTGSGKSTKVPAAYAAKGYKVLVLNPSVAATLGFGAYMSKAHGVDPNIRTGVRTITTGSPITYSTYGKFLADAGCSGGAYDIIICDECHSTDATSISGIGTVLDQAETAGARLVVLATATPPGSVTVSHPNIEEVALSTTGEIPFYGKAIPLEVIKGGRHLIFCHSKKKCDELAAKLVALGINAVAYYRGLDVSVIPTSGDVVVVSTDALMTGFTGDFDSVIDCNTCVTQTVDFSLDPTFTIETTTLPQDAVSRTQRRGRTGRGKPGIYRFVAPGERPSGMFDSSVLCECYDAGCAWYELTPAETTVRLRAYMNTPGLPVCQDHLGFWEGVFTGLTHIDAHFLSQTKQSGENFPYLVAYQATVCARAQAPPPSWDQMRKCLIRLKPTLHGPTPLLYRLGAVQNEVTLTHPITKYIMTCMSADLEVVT
# Outline: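 Full-length NS3 (E. coli-expressed at 2 nM or baculovirus-expressed at 3 nM) precomplexed with excess NS4A-2 peptide and preincubated with compound (top concentration 50 μM) for 10 min at room temperature. RETS1 substrate added; fluorescence read kinetically for 30 min (ex 335/em 495 nm). IC50 converted to Ki using Km 2.03 μM (E. coli) or 1.74 μM (baculovirus).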
# [2] = system: HCV sub-genomic replicon (1377/NS3-3') in HuH-7 hepatoma cells (GS4.3); assay: Quantitation by ELISA of NPTII in the HCV sub-genomic replicon, GS4.3; assay type: cell-based, hepatitis C virus (HCV); conditions: GS4.3 cells, 72 h incubation, NPTII ELISA, read-out: Replicon EC50
# Outline: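 GS4.3 cells (HuH-7 carrying HCV 1377/NS3-3′ replicon) treated 72 h at 37 °C with compound at 3-fold dilutions from 10 μM to 56 pM final, 1% DMSO, without G418. NPTII in lysates quantified by ELISA (450 nm). Signal expressed as percent of DMSO control; EC50 by 4-parameter fit.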
# [3] = recombinant full-length NS3/NS4A-2, RETS1 substrate, kinetic fluorescence read, read-out: NS3-NS4 IC50
Molecule,pIC50 [1],"pEC50 ([2]; Hepatitis C virus, Huh-7)","pIC50 [1, 3]",pEC50 [2]
CC[C@@H]1C[C@]1(NC(=O)[C@@H]1C[C@@H](OC(=O)N2Cc3cccc(Cl)c3C2)CN1C(=O)[C@@H](Nc1cccc(C(F)(F)F)c1)C(C)(C)C)C(=O)NS(=O)(=O)C1(C)CC1 [Compound 81],> 7.00,> 7.00,–,–
"[(3R,5S)-5-((1R,2R)-1-(cyclopropylsulfonylcarbamoyl)-2-ethylcyclopropylcarbamoyl)-1-((S)-3,3-dimethyl-2-(3-(trifluoromethyl)phenylamino)butanoyl)pyrrolidin-3-yl]4-chloroisoindoline-2-carboxylate [Compound 55]",–,–,> 7.00,> 7.00
"[(3R,5S)-5-(((1R,2R)-1-(Cyclopropylsulfonylcarbamoyl)-2-ethylcyclopropyl)carbamoyl)-1-((S)-2-(5-ethylthiazol-2-ylamino)-3,3-dimethylbutanoyl)pyrrolidin-3-yl]4-chloroisoindoline-2-carboxylate [Compound 66]",–,–,> 7.00,> 7.00
"[(3R,5S)-5-(((1R,2R)-1-(Cyclopropylsulfonylcarbamoyl)-2-ethylcyclopropyl)carbamoyl)-1-((S)-2-(5-isopropylthiazol-2-ylamino)-3-methylbutanoyl)pyrrolidin-3-yl]4-chloroisoindoline-2-carboxylate [Compound 67]",–,–,> 7.00,> 7.00
"[(3R,5S)-5-(((1R,2R)-1-(Cyclopropylsulfonylcarbamoyl)-2-ethylcyclopropyl)carbamoyl)-1-((S)-2-cyclohexyl-2-(5-ethylthiazol-2-ylamino)acetyl)pyrrolidin-3-yl]4-chloroisoindoline-2-carboxylate [Compound 64]",–,–,> 7.00,> 7.00
"[(3R,5S)-5-(((1R,2S)-1-(cyclopropylsulfonylcarbamoyl)-2-vinylcyclopropyl)carbamoyl)-1-((S)-2-cyclohexyl-2-(5-ethylthiazol-2-ylamino)acetyl)pyrrolidin-3-yl]4-chloroisoindoline-2-carboxylate [Compound 62]",–,–,> 7.00,> 7.00
